Like-named read-outs stand apart in the source and are kept apart here.
Experiments:
[1] = target: T1, Full length ERK3 (NanoLuc fusion) (Homo sapiens, UniProt Q16659); assay: Cell-based NanoBRET assay (tracer displacement) in HEK293T cells; conditions: for IC50: Figure 2F, HEK293T cells, 0.25 µM Tracer K5, 2 h, averaged over two replicates; for remaining activity at 5 µM / remaining activity at 10 µM: HEK-293T, 2 h, Table S3, ratio to DMSO control; for remaining activity at 5 µM: single dose 5 µM, read-out: Norm.BRET 5 µM; for remaining activity at 10 µM: single dose 10 µM, read-out: Norm.BRET 10 µM
T1 construct: Full length ERK3 was cloned into pFC32K (Promega, Madison, WI, USA); expressed in transfected cells; host or cells: HEK293T
T1 sequence (Q16659 whole entry, the tested form may be a part): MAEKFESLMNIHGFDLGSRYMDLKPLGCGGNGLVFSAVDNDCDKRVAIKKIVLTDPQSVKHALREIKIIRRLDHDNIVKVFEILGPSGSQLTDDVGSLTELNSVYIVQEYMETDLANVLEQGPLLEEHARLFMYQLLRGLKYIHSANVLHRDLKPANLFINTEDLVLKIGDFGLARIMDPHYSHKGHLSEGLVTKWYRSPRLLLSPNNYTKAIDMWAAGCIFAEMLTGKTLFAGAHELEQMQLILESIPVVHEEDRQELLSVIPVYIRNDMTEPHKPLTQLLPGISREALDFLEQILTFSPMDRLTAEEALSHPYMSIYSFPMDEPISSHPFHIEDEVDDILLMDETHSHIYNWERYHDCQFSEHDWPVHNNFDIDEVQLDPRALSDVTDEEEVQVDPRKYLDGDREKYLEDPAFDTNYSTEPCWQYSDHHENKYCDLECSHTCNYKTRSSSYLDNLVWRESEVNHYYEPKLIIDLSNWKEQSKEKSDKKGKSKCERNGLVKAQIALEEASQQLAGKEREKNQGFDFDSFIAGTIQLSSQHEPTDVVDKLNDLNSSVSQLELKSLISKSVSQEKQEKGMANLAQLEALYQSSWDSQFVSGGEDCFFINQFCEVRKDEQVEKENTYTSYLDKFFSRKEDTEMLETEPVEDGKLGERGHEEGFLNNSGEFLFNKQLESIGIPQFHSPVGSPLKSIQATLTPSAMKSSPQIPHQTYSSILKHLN
Protocol: Full length ERK3 was cloned into pFC32K (Promega, Madison, WI, USA) for the expression of an […] NanoLuc fusion, and the plasmid was transfected into HEK293T cells cultured in DMEM (Gibco) supplemented with 10% fetal bovine serum (Gibco) and penicillin/streptamycin (Gibco, Thermo Fisher Scientific, Waltham, MA, USA). NanoBRET assays were performed using protocol published previously. Briefly, after transfection and 20 h incubation, cells were harvested and subsequently resuspended in OptiMEM (Gibco). […] BRET luminescence (450 nm for donor emission and 610 nm for BRET signal) was measured using PHERAstar FSX plate reader (BMG Labtech, Ortenberg, Germany). Milli-BRET units (mBU) were calculated as a ratio between the BRET signal and the overall measured luminescence. A dose–response fitting was applied, and the corresponding IC50 values were calculated in Prism software. For the single concentration screening, the normalized BRET values were calculated from the ratio between the BRET signals of the tested inhibitor and that of the DMSO control.

[2] = target: T2, ERK3 kinase domain (Homo sapiens, UniProt Q16659); assay: Melting temperature assay (differential scanning fluorimetry, DSF); assay type: binding; conditions: for ΔTm (melting temperature shift): DSF screen of 1454 kinase inhibitors
T2 construct: The kinase domain of ERK3 (M9-I327) was subcloned into pNIC28–Bsa4; His6 (N, cleaved yes); made in house; host or cells: E. coli (co-expressed with lambda phosphatase)
T2 sequence (Q16659 9-327): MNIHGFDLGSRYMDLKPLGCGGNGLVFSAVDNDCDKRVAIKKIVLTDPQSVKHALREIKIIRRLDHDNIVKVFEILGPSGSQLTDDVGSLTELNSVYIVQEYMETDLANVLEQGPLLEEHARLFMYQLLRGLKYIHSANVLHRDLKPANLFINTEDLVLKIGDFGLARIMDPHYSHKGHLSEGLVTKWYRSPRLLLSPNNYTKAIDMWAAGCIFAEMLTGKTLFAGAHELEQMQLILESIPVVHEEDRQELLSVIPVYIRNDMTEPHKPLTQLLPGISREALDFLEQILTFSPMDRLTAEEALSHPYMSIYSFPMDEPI
Protocol: The ERK3 kinase domain at 2 µM in 10 mM HEPES pH 7.5 and 500 mM NaCl was mixed with 10 µM inhibitors and SyPRO Orange at 1:1000 dilution. After 10 min incubation at room temperature, the fluorescence signal, which increases upon the temperature-dependent unfolding of ERK3 protein, was measured using Mx3005p real-time PCR machine (Stratagene, San Diego, CA, USA). The ∆Tm shifts were calculated using protocol described previously.

[3] = target: T2, ERK3 kinase domain; assay: Isothermal titration calorimetry (ITC); assay type: binding; conditions: for Kd: Figure 2E, 15 °C, averaged over two replicates, read-out: ITC dissociation constant Kd
Protocol: The integrated heat of titration was calculated and fitted into an independent binding model using NanoAnalyzer software. Thermodynamic parameters, the dissociation constant (Kd), and stoichiometry (n) were an average over duplicates.

[4] = target: T2, ERK3 kinase domain; assay: Mass spectrometry analyses of covalent adducts (intact mass, chymotrypsin digestion); assay type: binding; conditions: kinase and inhibitor at 1:1 ratio, 30 min, room temperature
Protocol: The protein was purified using C8 stage tips, and the intact mass was analysed using LC-ESI TOF (Agilient, Santa Clara, CA, USA) and Bioconfirm software (Agilient). Chymotrypsin digestion followed by mass spectrometry analysis was performed to identify the residue that forms a covalent bond with the inhibitors. […] The protein was subsequently precipitated by 50% […], and the resulting pellet was washed twice with cold acetone. Chymotrypsin (Sigma Aldrich) digestion was performed in 50 mM (NH4)2CO3 overnight at 37 °C. The solution after proteolysis were spotted in quadruplets onto the 4-chloro-α-cyanocinnamic acid matrix (Sigma Aldrich; 3 mg mL^−1 in TFA-acidified 50% acetonitrile), and the m/z ratios were analysed on a Thermo Fisher MALDI-LTQ Orbitrap XL spectrometer.

[5] = Table S3, DSF assay values shown for comparison, read-out: ΔTm ERK3
[6] = Table S2, 10 µM inhibitors, read-out: ΔTm Initial Screen
[7] = Table S2, average of two repeats ± standard deviation, read-out: ΔTm Follow Up

Row | SMILES | remaining activity at 5 µM ([1]; HEK293T) | remaining activity at 10 µM ([1]; HEK293T) | ΔTm at 10 µM [2, 5] | ΔTm at 10 µM [2, 6] | ΔTm at 10 µM [2, 7] | further results
1 | COc1cc2ncnc(Nc3cccc(Cl)c3)c2cc1OC [AG-1478] | 73.5 ± 1.1% | 41.7% | 0.06 °C | – | – | –
2 | O=C(Nc1c[nH]nc1-c1nc2ccc(CN3CCOCC3)cc2[nH]1)NC1CC1 [AT9283] | 16.1 ± 3.9% | 10.6 ± 1.5% | – | 3.08 °C | 3.1 ± 0.1 °C | IC50 [1]: 15 ± 7 nM; ITC dissociation constant (Kd), in words [3]: low nanomolar affinities; Kd [3]: 80 ± 5 nM; ΔTm (melting temperature shift) [2]: 3.1–3.8 °C
3 | Cc1ncc(-c2ccnc(Nc3ccc(S(C)(=O)=O)cc3)n2)n1C(C)C [AZD5438] | 93.3 ± 4% | 61.7 ± 2.2% | -0.17 °C | – | – | –
4 | O=C(Nc1cccc(Nc2ncc(Br)c(NCCc3cnc[nH]3)n2)c1)N1CCCC1 [BX-912] | 74.1 ± 1.5% | 53.2 ± 1.7% | -0.12 °C | – | – | –
5 | O=C(/C=C/c1ccc(O)c(O)c1)c1ccc(O)cc1O [Butein] | – | – | – | 1.15 °C | – | –
6 | CN1CCN(c2ccc(Nc3nccc(-c4cnn5ncccc45)n3)cc2)CC1 [CAF045] | – | – | – | – | – | ΔTm at 10 µM ([2]; read-out: ΔTm Follow Up): 1.4 ± 0.5 °C; ΔTm at 10 µM ([2]; read-out: ΔTm Initial Screen): 1.61 °C
7 | O=C(NC(NC(=S)Nc1ccc(F)c([N+](=O)[O-])c1)C(Cl)(Cl)Cl)C(c1ccccc1)c1ccccc1 (stereo not shown) [CGK733] | – | – | – | 1.17 °C | – | –
8 | Cc1nc(N)sc1-c1ccnc(Nc2ccc(N3CCOCC3)cc2)n1 [CYC116] | 64.9 ± 3.8% | 52.9 ± 2.8% | 0.26 °C | – | – | –
9 | Cc1cc(Nc2cc(N3CCN(C)CC3)nc(/C=C/c3ccccc3)n2)n[nH]1 [ENMD-2076] | 90.8 ± 3% | 58.5 ± 0.4% | -0.15 °C | – | – | –
10 | CCn1cc(-c2ccnc3[nH]c(-c4cccc(CN(C)C)c4)cc23)c(-c2ccc(NC(=O)N(C)C)cc2)n1 [GSK1070916] | 56.8 ± 2.8% | 31.3 ± 0.1% | – | 1.45 °C | 0.1 ± 0.3 °C | IC50, cell-based NanoBRET assay ([1]; HEK293T): did not produce a BRET signal
11 | O=C1Nc2ccc(I)cc2C1=Cc1cc(Br)c(O)c(Br)c1 [GW5074] | – | – | – | – | – | ΔTm at 10 µM ([2]; read-out: ΔTm Initial Screen): 1.36 °C
12 | COc1cccc(-n2ncc3c(N/N=C/c4ccc(C(=O)NCCN(C)C)cc4)ncnc32)c1 [GW784307A] | – | – | – | – | – | ΔTm at 10 µM ([2]; read-out: ΔTm Initial Screen): 1.3 °C
13 | O=C(Nc1cc(C(F)(F)F)cc(C(F)(F)F)c1)c1cc(Cl)ccc1O [IMD0354] | – | – | – | – | – | ΔTm at 10 µM ([2]; read-out: ΔTm Initial Screen): 1.21 °C
14 | Oc1ccc2ccccc2c1SSc1c(O)ccc2ccccc12 [IPA-3] | 67.8 ± 10.6% | 45.5 ± 4.2% | -3.92 ± 0.3 °C | – | – | –
15 | CN(C)C/C=C/C(=O)Nc1cccc(C(=O)Nc2ccc(Nc3nccc(-c4cccnc4)n3)cc2)c1 [JNK-IN-7] | – | – | – | – | – | IC50 [1]: 112 ± 23 nM; covalent adduct formation (intact mass shift) [4]: covalent formation, albeit only partially
16 | CNC(=O)c1nn(C)c2c1C(C)(C)Cc1cnc(Nc3ccc(N4CCN(C)CC4)cc3)nc1-2 [Milciclib] | 40.9% | 26.8 ± 0.5% | – | 2.11 °C | 2.5 ± 0.3 °C | IC50 [1]: 27 ± 5 nM; Kd [3]: 245 ± 60 nM
17 | CN(c1ncccc1CNc1nc(Nc2ccc3c(c2)CC(=O)N3)ncc1C(F)(F)F)S(C)(=O)=O [PF-00562271] | 76.8 ± 9.4% | 49.5 ± 4.6% | -0.09 °C | – | – | –
18 | NC(=O)c1cnc(N[C@@H]2CCCC[C@@H]2N)nc1Nc1cccc(-n2nccn2)c1 [PRT062607] | 88.2 ± 10.3% | 60.1 ± 16.9% | 0.51 °C | – | – | –
19 | CC(C)(C)c1cc(NC(=O)Nc2ccc(-c3cn4c(n3)sc3cc(OCCN5CCOCC5)ccc34)cc2)no1 [Quizartinib] | – | – | – | – | – | ΔTm Initial Screen ([2]; Table S2, 10 µM inhibitors): 1.12 °C
20 | Fc1ccc(-c2ncn(C3CCNCC3)c2-c2ccnc(Oc3ccc4c(c3)OCO4)n2)cc1 [SB-250715] | – | – | – | 1.1 °C | – | –
21 | CNC(=O)c1cc(Oc2ccc(NC(=O)Nc3ccc(Cl)c(C(F)(F)F)c3)cc2)ccn1 [Sorafenib] | – | – | – | – | – | ΔTm at 10 µM ([2]; read-out: ΔTm Follow Up): 0 °C; ΔTm at 10 µM ([2]; read-out: ΔTm Initial Screen): 1.2 °C
22 | Cc1cnc(Nc2ccc(N3CCN(C)CC3)cc2)nc1Nc1cccc(S(=O)(=O)NC(C)(C)C)c1 [TG101209] | 46.6 ± 2.2% | 36.9 ± 0.7% | 0.3 ± 0.2 °C | – | – | IC50 [1]: 1540 ± 214 nM
23 | COc1cc2ncnc(Nc3ccc(O)c(Br)c3)c2cc1OC [WHI-P154] | 50.8 ± 4.5% | 36.2 ± 6.3% | -0.1 ± 0.2 °C | – | – | IC50 [1]: 540 ± 129 nM
24 | COc1ccc(Cl)c(Nc2nc3ccccc3nc2NS(=O)(=O)c2cccc(NC(=O)C(C)(C)N)c2)c1 [XL147] | – | – | – | 1.96 °C | 1.2 ± 0.6 °C | –

Now from value to molecule, other results behind:

Row | remaining activity at 5 µM ([1]; HEK293T) | remaining activity at 10 µM ([1]; HEK293T) | ΔTm at 10 µM [2, 5] | ΔTm at 10 µM [2, 6] | ΔTm at 10 µM [2, 7] | SMILES | further results
25 | 40 ± 1.6% | 38.8 ± 3.1% | 0.4 ± 0.3 °C | – | – | CCN1CCN(Cc2ccc(-c3cc4c(N[C@H](C)c5ccccc5)ncnc4[nH]3)cc2)CC1 [AEE788] | IC50 [1]: 145 ± 45 nM
26 | 80.6 ± 6.7% | 49.4 ± 1.1% | 0.02 °C | – | – | CC(C)CCN1c2nc(Nc3cc(F)c(O)c(F)c3)ncc2N(C)C(=O)C1C (stereo not shown) [BI-D1870] | –
27 | – | – | – | 2.81 °C | 2.5 ± 0.3 °C | CN1CCN(c2ccc(Nc3nccc(-c4cnn5ncccc45)n3)cc2F)CC1 [CAF052] | IC50 [1]: 20 ± 13 nM
28 | – | – | – | 3.83 °C | 3.3 ± 0.2 °C | CN1CCN(c2ccc(Nc3nccc(-c4cnn5ncccc45)n3)cc2C#N)CC1 [CAF078] | IC50 [1]: 9 ± 1 nM; ITC dissociation constant (Kd), in words [3]: low nanomolar affinities; Kd [3]: 44 ± 26 nM; ΔTm (melting temperature shift) [2]: 3.1–3.8 °C
29 | – | – | – | 1.7 °C | 1 ± 0.1 °C | O=C(Nc1ccc(Nc2nccc(Nc3cc(C4CCCC4)[nH]n3)n2)cc1)Nc1cccc(C(F)(F)F)c1 [CD532] | –
30 | – | – | – | 1.04 °C | – | C=CC(=O)Nc1cccc(Nc2nc(Nc3ccc(Oc4ccnc(C(=O)NC)c4)cc3)ncc2F)c1 [CNX-774] | –
31 | – | – | – | 2.05 °C | 3.1 ± 0.3 °C | C=CC(=O)Nc1cc2c(Nc3ccc(F)c(Cl)c3)ncnc2cc1OCCCN1CCOCC1 [Canertinib] | –
32 | – | – | – | 1.12 °C | -0.3 ± 0.3 °C | CCCN1CCC(c2ccc(Nc3nc(Nc4cc(F)ccc4C(N)=O)c4cc[nH]c4n3)c(OC)c2)CC1 [GSK1326255A] | –
33 | – | – | – | 1.04 °C | 1.1 ± 0.2 °C | NS(=O)(=O)c1ccc(N/N=C2\C(=O)Nc3ccc4ncccc4c32)cc1 [GW305178X] | –
34 | – | – | – | 1.04 °C | 0.8 ± 0.4 °C | CS(=O)(=O)CCNCc1ccc(-c2ccc3ncnc(Nc4ccc(OCc5ccccc5)c(Br)c4)c3c2)o1 [GW580496A] | –
35 | – | – | – | 2.55 °C | 2.5 ± 0.2 °C | COc1cccc(-c2c[nH]c3c(N/N=C/c4ccncc4)ncnc23)c1 [GW814408X] | –
36 | 28.8 ± 2.4% | 19.6 ± 5.7% | – | 1.67 °C | 1.7 ± 0.4 °C | O=C(c1ccc(Nc2nccc(-c3cc4ccccc4s3)n2)cc1)N1CCC(N2CCCC2)CC1 [IKK-16] | IC50 [1]: 116 ± 26 nM; Kd [3]: 1850 ± 915 nM
37 | 23.1 ± 0.1% | 17 ± 0.1% | 0.2 ± 0.1 °C | – | – | Nc1nc(Nc2ccc(S(N)(=O)=O)cc2)nn1C(=O)c1c(F)cccc1F [JNJ-7706621] | –
38 | 71.7 ± 7.8% | 49.8 ± 4.1% | 0.15 °C | – | – | CC(C)(C)c1cnc(CSc2cnc(NC(=O)C3CCNCC3)s2)o1 [SNS-032] | –
39 | 54.2 ± 6.4% | 28.1 ± 5.5% | 0.6 ± 0.2 °C | – | – | Nc1cccc(-c2cc3c(Oc4cccc(O)c4)ncnc3[nH]2)c1 [TWS119] | IC50 [1]: 601 ± 29 nM; Kd [3]: 1930 ± 182 nM

From article PMC7663056, “Crystal Structure and Inhibitor Identifications Reveal Targeting Opportunity for the Atypical MAPK Kinase ERK3” (International Journal of Molecular Sciences, 2020)
